The record followed here is patent US20100204157A1, “USE OF A PEPTIDE AS A THERAPEUTIC AGENT” (priority 2007, published 2010).

Where no end group is shown, it is not given here.

Data set [1] is described as follows: Cytotoxicity in CEM-SS cells (MTS). The note with it: human.
The nature of data set [2]: Cell viability in HepG2-2.2.15 cells (dye uptake). Format: cell-based. The note with it: human, HepG2-2.2.15 cells (stable line containing HBV ayw genome), test peptide 10 micrograms per ml, dye uptake assay.
The subject of a further data set is Pseudomonas aeruginosa. Briefly: Pseudomonas aeruginosa assay. The data set is classed as cell-based. The note with it: Pseudomonas aeruginosa growth; peptide 10 micrograms per ml; read visually.
Another data set deals with MRSA. The experiment in a line: Methicillin Resistant Staphylococcus Aureus (MRSA) assay. The note with it: MRSA growth; peptide 10 micrograms per ml; read visually. Format: cell-based.
Data set [3] is described as follows: Cytotoxicity in MRC-5 cells (CellTiter 96). The note with it: human, MRC-5 cells (embryonal lung fibroblasts).
Procedure: For cytotxicity testing, MRC-5 cells were seeded at 2,500 cells/well in 96 well plates using growth medium. […] The following day, peptide were added and tested in duplicates. After a 6 days incubation period, cell viability was measured using CellTiter 96 Solution (Promega). Plates were incubated for additional 4 hours at 37° C.
The subject of the next data set is Streptococcus pneumoniae. Briefly: Streptococcus pneumoniae assay. The data set is classed as cell-based. The note with it: Streptococcus pneumoniae growth; peptide 10 micrograms per ml; read visually.
The next data set relates to CEM-SS cells. Briefly: Cytotoxicity in CEM-SS cells (MTS). The note with it: peptide 10 micrograms per ml, MTS.
Another data set relates to HIV-1IIIB. Briefly: HIV-1 antiviral assay (CPE reduction, MTS). As to conditions: peptide 10 micrograms per ml, 6 days post-infection. The data set is classed as cell-based.
The subject of another data set is HepG2-2.2.15 cells. The experiment in a line: Cell viability in HepG2-2.2.15 cells (dye uptake). The data set is classed as cell-based. The note with it: test peptide 10 micrograms per ml, dye uptake assay.
In a further data set the test system is MRC-5 cells. As to conditions: human, 6 days.

Procedure for Pseudomonas aeruginosa: The antibacterial assay was conducted using clear, U-bottom 96-well microtiter plates. Cation-adjusted Mueller-Hinton Broth (MHB) was used for testing Pseudomonas aeruginosa. The peptide of the invention (0.1 ml of each—10 micrograms per ml—) were dispensed into wells in duplicate. Then the wells were inoculated with 5×10^5 CFU/mL Pseudomonas aeruginosa in 0.1 ml volume. For control purposes, each plate included 4 wells containing media without bacterial inoculum and 4 wells containing medium with inoculum but without peptide. The plates were incubated for 12 h at 37° C., and read visually 18-24 hours post-incubation. Growth control of Pseudomonas aeruginosa was examined first to determine adequacy of media preparations and growth conditions. Acceptable growth is defined as ≧2 mm wide button of cells at the bottom of each sample well, or obvious turbidity in the culture supernatant. Test wells were examined and scored as positive/negative for activity. A positive score for activity is based on complete inhibition of macroscopic growth of the test Pseudomonas aeruginosa.
Procedure for Streptococcus pneumoniae: The antibacterial assay was conducted using clear, U-bottom 96-well microtiter plates. Cation-adjusted Mueller-Hinton Broth (MHB) was used for testing Streptococcus pneumoniae. The peptide of the invention (0.1 ml of each—10 micrograms per ml—) were dispensed into wells in duplicate. Then the wells were inoculated with 5×10^5 CFU/mL Streptococcus pneumoniae in 0.1 ml volume. For control purposes, each plate included 4 wells containing media without bacterial inoculum and 4 wells containing medium with inoculum but without peptide. The plates were incubated for 12 h at 37° C., and read visually 18-24 hours post-incubation. Growth control of Streptococcus pneumoniae was examined first to determine adequacy of media preparations and growth conditions. Acceptable growth is defined as ≧2 mm wide button of cells at the bottom of each sample well, or obvious turbidity in the culture supernatant. Test wells were examined and scored as positive/negative for activity. A positive score for activity is based on complete inhibition of macroscopic growth of the test Streptococcus pneumoniae.

What is called viability is a per cent measure of how many cells are alive, often set against a control. The low end stands for more harm to the cells, the high end for less harm to the cells. A word on the % inhibition: it is the drop in the measured response relative to a control, in per cent. High values mean strong suppression, low ones little suppression. In the case of FFVAP [Phe-Phe-Val-Ala-Pro], the viability at 10 micrograms per ml in data set [1] was 100%. This compound also returned a viability at 144 h, 10 micrograms per ml in data set [2] of 98.1%. The “% inhibition” value with Pseudomonas aeruginosa, in the data set with MRSA and with Streptococcus pneumoniae was 0.0% throughout. The same compound returned a viability at 144 h in data set [3] of 100%.

As to `Cc1cn([C@H]2C[C@H](N=[N+]=[N-])[C@@H](CO)O2)c(=O)[nH]c1=O` [AZT, reference compound], in the data set with CEM-SS cells, the “% Cell Viability” value stood at 97%. For the same compound, in the data set on HIV-1IIIB, the “% CPE reduction in HIV-1 infected CEM-SS cells” value is 99%.

Regarding `Nc1ccn([C@@H]2CS[C@H](CO)O2)c(=O)n1` [3TC, Lamivudine, reference compound], the “% Cell Viability” value with HepG2-2.2.15 cells is on record as 95.8%.

`Nc1nc(O)c2ncn(COC(CO)CO)c2n1` [Ganciclovir]: the “% Cell Viability” value in the data set on MRC-5 cells amounted to 100%.
